Data set [1] deals with PARP1 in A549 NSCLC cells. The data set is described as follows: PAR formation, Western blot. The data set is classed as cell-based, human. The settings on record: 25 mM, β-lap-treated A549 NSCLC cells. On the procedure:
Whole-cell extracts were prepared, proteins separated by SDSPAGE, and Western blots developed using SuperSignal® West Pico Chemiluminescent substrate (Thermo Scientific, Rockford, Ill.), and exposed using Autoradiography Film (Denville Scientific Inc., Metuchen, N.J.). An anti-human NQO1 antibody was kindly provided to us by Dr. David Ross (University of Colorado Health Science Center, Denver, Colo.) and used at a 1:5000 dilution overnight at 4° C.

For data set [2], the system named is PARP1 in MCF-7 cells. As to the kind of experiment: Western-blot analyses for PARP1 cleavage. Type of data set: cell-based, human. The following applies: pre-treatment, 4 μM β-lap 2 h pulse. On the procedure: For Western-blot analyses for PARP1 cleavage-MCF-7 cells seeded in 10 cm dishes were treated with 4 μM β-lap in the absence or presence of 1000 U of catalase dissolved in hepes buffer pH 7.4 for 2 h. Cells were then given fresh media and incubated at 37° C. for 24 h. Cells were then harvested in PARP1 lysis buffer. Lysates were resolved in 10% SDS-PAGE and immunoblotted onto PVDF membranes and probed with a monoclonal PARP1 antibody (SC-8007). […] Relative PAR levels were calculated by densitometric analyses by NIH ImageJ using PARP1 loading controls. Measurements were normalized to t=0 levels. Western blots shown are representative of separate experiments performed at least three times.

The test system of data set [3] is PC-3 cells. The data set is described as follows: Intracellular NAD+ and ATP levels. Type of data set: cell-based, human. The following applies: pre- and co-treatment, 2 or 3 Gy+3 μM β-lap. On the procedure: ATP levels were analyzed from whole-cell extracts using CellTiter-Glo Luminescent Cell Viability Assays (Promega, Madison, Wis.) following the manufacture's instructions. Data were graphed as means±SE from at least three independent experiments in triplicates.

Data set [4] concerns the target T1, NQO1 (Homo sapiens, UniProt P15559, R139W).
T1 construct: S9 Supernatants were prepared from cells in mid-log to late log phase growth; endogenous in cells; host or cells: cancer cell lines, mostly from a non-small cell lung cancer panel (e.g. Calu-3); S9 supernatants
As to the kind of experiment: NQO1 enzyme assays using β-lapachone or the standard menadione substrates. The data set is classed as biochemical. The settings on record: menadione as substrate. On the procedure: (§1) S9 Supernatants were prepared from cells in mid-log to late log phase growth. […] The cell suspensions were sonicated on ice four times, using 10-s pulses, and then centrifuged at 14,000×g for 20 min. The S9 supernatants were aliquoted into microcentrifuge tubes and stored at −80° C. until used. A 1× protease inhibitor cocktail was added to prevent enzyme activity degradation. […] Menadione was used as the electron acceptor. NADH was used as the electron donor.
(§2) NQO1 activity was measured using NADH (200 μM) as the immediate electron donor and menadione (10 μM) as the intermediate electron acceptor. […] Biochem. Biophys. […] NADH: cytochrome b5 reductase was measured using NADH (200 μM) as the electron donor, and […] was measured using NADPH (200 μM) as electron donor (45) in a Beckman DU 640 spectrophotometer (Beckman Coulter, Fullerton, Calif.). Reactions were carried out at 37° C. and were initiated by the addition of S9 supernatants. Varying amounts of supernatants, from 10 to 40 μL, were used to ensure linearity of rates with protein concentration. […] Results shown are the average enzyme activity for three separate cell extractions±S.D. or both values from duplicate experiments.
(§3) Cell lines, mostly from a 5-panel nonsmall cell lung cancer panel from the UT Southwestern SPORE, were assessed for NQO1 polymorphism status and then monitored for NQO1 enzyme assays using β-lapachone or the standard menadione substrates. […] NQO1*2/*2 and *3/*3 polymorphisms were detected from NQO1 *1/*1 wild-type sequences by PCR-RFLP. Genomic DNA was extracted from the cells using Qiagen spin columns. Using previously described oligonucleotide primers, PCR products underwent gel electrophoresis. Final genotyping was determined based on the size and pattern of separated bands diagnostic for *1/*1 (wild-type), or polymorphic *2/*2 or *3/*3 NQO1 polymorphisms.

The target in data set [5] is T2, NQO1 (Homo sapiens, UniProt P15559, P187S).
T2 construct: S9 Supernatants were prepared from cells in mid-log to late log phase growth; endogenous in cells; host or cells: cancer cell lines, mostly from a non-small cell lung cancer panel; S9 supernatants
T2 sequence (P15559 whole entry P187S): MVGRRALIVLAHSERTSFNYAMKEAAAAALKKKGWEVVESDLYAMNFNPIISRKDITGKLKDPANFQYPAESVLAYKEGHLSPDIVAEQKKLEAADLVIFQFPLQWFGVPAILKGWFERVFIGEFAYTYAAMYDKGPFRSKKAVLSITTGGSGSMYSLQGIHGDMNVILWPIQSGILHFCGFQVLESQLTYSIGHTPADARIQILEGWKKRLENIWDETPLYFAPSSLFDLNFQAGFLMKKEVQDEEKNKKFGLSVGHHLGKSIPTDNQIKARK
Described as above. Type of data set: biochemical. The following applies: single value given. On the procedure: as §1, §2, §3

Data set [6] deals with NQO1. The data set is described as above. Type of data set: biochemical, human. The following applies: menadione as substrate. On the procedure: as §1, §2, §3
The target in data set [7] is NQO1 (Homo sapiens, UniProt P15559). The description is as above. Details: S9 Supernatants were prepared from cells in mid-log to late log phase growth; endogenous in cells; host or cells: cancer cell lines, mostly from a non-small cell lung cancer panel; S9 supernatants. The following applies: menadione as substrate. The data set is classed as biochemical. On the procedure:
as §1, §2, §3

Data set [8] has as its system MDA-MB-231 cells expressing NQO1 (231+). The data set is described as follows: Long term survival assay. The data set is classed as cell-based, human. The settings on record: 231-NQ+ cells. On the procedure: Cells were cultured and treated as described above.
Data were expressed as relative survival (treated/control×100%).

The test system of data set [9] is Human (shown) or mouse rbs. The data set is described as follows: Hemolysis of red blood cells. Type of data set: cell-based. The following applies: rbs incubated with HPβCD alone, HPβCD-β-lap, or β-lap alone in DMSO. On the procedure:
Human (shown) or mouse rbs were incubated with HPβCD alone or HPβCD-β-lap, or β-lap alone in DMSO.

T1 sequence (P15559 whole entry R139W): as the sequence (P15559 whole entry P187S) above, with R139W, S187P counted along it
Chain of NQO1 (Homo sapiens, UniProt P15559) (P15559 whole entry): as the sequence (P15559 whole entry P187S) above, with S187P counted along it

On to `NC(=O)c1cccc(N)c1` [3-aminobenzamide], for which the “Effect on PAR formation” value in data set [1] was “spares and delays PAR formation”.
Regarding `CC(=O)OCOC(=O)CN(CC(=O)OCOC(C)=O)c1ccccc1OCCOc1ccccc1N(CC(=O)OCOC(C)=O)CC(=O)OCOC(C)=O` [BAPTA-AM], the “Effect on β-lap-mediated proteolysis of PARP1 and lethality” value in data set [2] is “prevented”.
Take `O=C1NCCc2c(OCCCCN3CCCCC3)cccc21` [DPQ, 3,4-dihydro-5[4-(1-piperindinyl)butoxy]-1(2H)-isoquinoline]: the “Effect on synergistic losses of ATP” value in [3] is reported as “prevented”.
As to `CC1=CC(=O)c2ccccc2C1=O` [Men, menadione], the “NQO1 activity, Men” value is 48 ± 3 nmol/min/µg in data set [4] (Calu-3/NSCLC *3/*3); 4.0 ± 1 nmol/min/µg in data set [4] (H2009/NSCLC *3/*3); 98 ± 17 nmol/min/µg in data set [4] (HCC1171/NSCLC *3/*3); 32 ± 2 nmol/min/µg in data set [4] (T47D/BreastCancer *3/*3); below 1 ± 0.01 nmol/min/µg in [5] (H596/NSCLC *2/*2); below 1 ± 0.01 nmol/min/µg in data set [5] (H2882/NSCLC *2/*2). In addition, the “NQO1 activity, Men” value was below 1 ± 0.01 nmol/min/µg in [5] (HCC366/NSCLC *2/*2); 1 ± 0.05 nmol/min/µg in [5] (MDA-MB-231/Breast *2/*2); below 1 ± 0.01 nmol/min/µg in data set [5] (MDA-MB-468/Breast *2/*2); 169 +/− 17; ND nMoles/min/μg in [6] (H292 *1/*2); 148 ± 14 nmol/min/µg in data set [6] (HCC44 *1/*2); 1234 +/− 40; ND nMoles/min/μg in data set [7] (H322 *1/*1). Besides, the “NQO1 activity, Men” value in data set [7] (H1648 *1/*1) is 1370 +/− 17; ND nMoles/min/μg; in data set [7] (H1993 *1/*1) it was 1170 ± 30 nmol/min/µg; in data set [7] (H2073 *1/*1) it was 1340 +/− 20; ND nMoles/min/μg.
For the compound `CC(=O)N[C@@H](CS)C(=O)O` [NAC, N-acetyl-L-cysteine], the “Effect on lethal effects of β-lap” value in [8] (pre- and co-treatments) is “protected against the lethal effects of 2 μM β-lap, but not 3 μM”.
Take Catalase: the “Catalase amount that significantly protected cells from the lethal effects of β-lap” value in [8] (exogenous catalase) was at least 500 units.
Take Z-VAD: the “Effect on β-lap-mediated proteolysis of PARP1 and lethality” value in data set [2] is “ineffective”.
Take hydroxypropyl-β-cyclodextrin [HPβCD]: the Hemolysis entry in data set [9] is reported as “caused significant hemolyses”.

(Values after patent publication US9469878B2, “Methods of treating cancer comprising targeting NQO1” (The Board of Regents of the University of Texas System, priority 2010, dated 2016).)
